Laboratory results reported in paper doi:10.1101/2024.10.17.618876v1 (biorxiv, 2024).
pKd: −log10 of the molar value.

Target: T1, human lysozyme (HL) (Homo sapiens, UniProt P61626)
T1 sequence (P61626 19-148): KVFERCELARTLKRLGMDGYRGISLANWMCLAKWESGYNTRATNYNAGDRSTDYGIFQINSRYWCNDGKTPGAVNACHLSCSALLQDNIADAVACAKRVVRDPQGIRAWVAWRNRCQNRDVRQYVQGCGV
Assay: isothermal titration calorimetry
Format: binding

pKd: 5.81
Compound: N=C(N)c1ccccc1 [benzamidine]
